According to patent US8952005B2, “Substituted 1,3-benzothiazol-2(3H)-ones and [1,3]thiazolo[5,4-B]pyridin-2(1H)-ones as positive allosteric modulators of mGluR2” (Merck Sharp & Dohme Corp., priority 2010, dated 2015):
pEC50: −log10 of the molar value.

Target: T1, recombinant human mGluR2 (Homo sapiens, UniProt Q14416)
T1 construct: expressed in transfected cells
Assay: FLIPR Ca2+ mobilization assay, potentiation of glutamate response at mGluR2
Type: cell-based
Conditions: potentiation after addition of EC20 concentration of glutamate (900 nM); CHO dhfr- cells expressing human mGluR2 and Gα16
Description: Inhibition constants are determined as follows. The compounds of the present invention may be tested in a fluorescence laser imaging plate reader (FLIPR) based assay. This assay is a common functional assay to monitor Ca^2+ mobilization in whole cells expressing recombinant receptor coupled with a promiscuous G-protein. CHO dhfr− cells stably expressing recombinant human mGluR2 and Gα16 loaded with Fluo-4 AM (Invitrogen, Carlsbad Calif.) are treated with dose responses of compounds and the Ca^2+ response is monitored on a FLIPR384 (Molecular Devices, Sunnydale Calif.) for agonist activity. The potentiation response is monitored after a subsequent addition of an EC20 concentration of glutamate (900 nM). The maximum calcium response at each concentration of compound for agonist or potentiation are plotted as dose responses and the curves are fitted with a four parameters logistic equation giving EC50 and Hill coefficient using the iterative non linear curve fitting software program.

T1 sequence (Q14416 19-872): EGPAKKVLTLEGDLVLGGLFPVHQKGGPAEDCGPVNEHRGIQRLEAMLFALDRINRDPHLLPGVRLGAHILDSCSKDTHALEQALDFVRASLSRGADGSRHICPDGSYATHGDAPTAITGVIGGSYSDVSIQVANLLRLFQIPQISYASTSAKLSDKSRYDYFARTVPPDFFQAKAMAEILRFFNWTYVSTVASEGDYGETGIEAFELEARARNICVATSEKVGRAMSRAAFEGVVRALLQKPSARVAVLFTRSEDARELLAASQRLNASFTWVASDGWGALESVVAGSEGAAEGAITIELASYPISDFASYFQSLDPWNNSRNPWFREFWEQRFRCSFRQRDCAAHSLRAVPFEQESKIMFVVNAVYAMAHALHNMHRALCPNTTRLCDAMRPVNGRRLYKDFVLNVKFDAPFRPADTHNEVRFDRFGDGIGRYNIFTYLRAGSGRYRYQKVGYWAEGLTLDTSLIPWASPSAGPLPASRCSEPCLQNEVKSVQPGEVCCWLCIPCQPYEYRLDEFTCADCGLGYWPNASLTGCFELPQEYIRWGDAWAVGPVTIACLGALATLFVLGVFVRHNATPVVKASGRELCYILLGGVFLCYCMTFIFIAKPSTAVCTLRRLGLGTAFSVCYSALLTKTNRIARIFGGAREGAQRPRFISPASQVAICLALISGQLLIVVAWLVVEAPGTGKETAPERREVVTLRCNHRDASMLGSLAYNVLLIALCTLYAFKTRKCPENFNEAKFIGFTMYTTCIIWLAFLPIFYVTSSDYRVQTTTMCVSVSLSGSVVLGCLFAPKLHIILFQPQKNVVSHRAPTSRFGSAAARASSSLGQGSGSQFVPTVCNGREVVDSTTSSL

Row | Compound | pEC50
1 | Cc1ccc(C(C)(C)O)cc1-c1ccc2c(n1)sc(=O)n2CC1CC1(F)F (stereo not shown) [Example 2-3, 1-{[2,2-difluorocyclopropyl]methyl}-5-[5-(1-hydroxy-1-methylethyl)-2-methylphenyl][1,3]thiazolo[5,4-b]pyridin-2(1H)-one] | 6.82
2 | CC(C)(C)Cn1c(=O)sc2nc(-c3ccccc3C#N)ccc21 [Example 3-2, 2-[1-(2,2-dimethylpropyl)-2-oxo-1,2-dihydro[1,3]thiazolo[5,4-b]pyridin-5-yl]benzonitrile] | 7.47
3 | N#Cc1ccccc1-c1ccc2c(c1)sc(=O)n2CC1CC1(F)F (stereo not shown) [Example 5-2, 2-(3-{[2,2-difluorocyclopropyl]methyl}-2-oxo-2,3-dihydro-1,3-benzothiazol-6-yl)benzonitrile] | 7.77
4 | O=c1sc2cc(-c3cccc(N4CCS(=O)(=O)CC4)c3)ccc2n1CC1CC1 [Example 6-16, 3-(cyclopropylmethyl)-6-[3-(1,1-dioxidothiomorpholin-4-yl)phenyl]-1,3-benzothiazol-2(3H)-one] | 7.19
5 | N#Cc1ccccc1-c1ccc2c(c1)sc(=O)n2Cc1ccc(Cl)cc1F [Example 9-15, 2-[3-(4-chloro-2-fluorobenzyl)-2-oxo-2,3-dihydro-1,3-benzothiazol-6-yl]benzonitrile] | 6.61
6 | N#Cc1cc(Oc2ccc(C#N)c(-c3ccc4c(n3)sc(=O)n4CC3CC3(F)F)c2)ccn1 (stereo not shown) [Example 16-3, 4-(4-cyano-3-{1-[(2,2-difluorocyclopropyl)methyl]-2-oxo-1,2-dihydro[1,3]thiazolo[5,4-b]pyridin-5-yl}phenoxy)pyridine-2-carbonitrile] | 7.82
7 | N#Cc1cccnc1Oc1ccc2c(c1)sc(=O)n2CC1CC1(F)F (stereo not shown) [Example 18-3, 2-({3-[(2,2-difluorocyclopropyl)methyl]-2-oxo-2,3-dihydro-1,3-benzothiazol-6-yl}oxy)nicotinonitrile] | 6.51
